Test system: NHBE cells
Experiment: Biolog metabolic array: substrate use by NHBE cells with or without CA09 infection
Assay type: cell-based, human
[1] = Control (uninfected) NHBE cells
[2] = Virus (CA09-infected NHBE cells, MOI 1)
[3] = Virus: CA09-infected NHBE cells, MOI 1, Biolog PMM2

`O=C(O)C[C@@H](O)C(=O)O` [D-Malic Acid] was tested, and the “590 nm absorbance normalized to zero hour (substrate use), 0 hr” value [1] was 1.00, the “590 nm absorbance normalized to zero hour (substrate use), 1 hr” value [1] was 1.49 and the “590 nm absorbance normalized to zero hour (substrate use), 2 hr” value (“590 nm absorbance normalized … 2 hr” below) [1] was 2.03. For the same compound, the “590 nm absorbance normalized to zero hour (substrate use), 3 hr” value (shortened to “590 nm absorbance normalized … 3 hr”) [1] was 2.06, the “590 nm absorbance normalized to zero hour (substrate use), 4 hr” value (“590 nm absorbance normalized … 4 hr” for short) [1] was 2.25 and the “590 nm absorbance normalized to zero hour (substrate use), 6 hr” value (“590 nm absorbance normalized … 6 hr” below) [1] was 2.19. The “590 nm absorbance normalized to zero hour (substrate use), 8 hr” value (shortened to “590 nm absorbance normalized … 8 hr”) [1] was 3.00, the “590 nm absorbance normalized to zero hour (substrate use), 9 hr” value (“590 nm absorbance normalized … 9 hr” for short) [1] was 3.06 and the “590 nm absorbance normalized to zero hour (substrate use), 10 hr” value (“590 nm absorbance normalized … 10 hr” below) [1] was 3.20. The “590 nm absorbance normalized to zero hour (substrate use), 11 hr” value (“590 nm absorbance normalized … 11 hr” below) [1] was 3.52, the “Substrate use, 590 nm absorbance normalized to zero hour, 0 hr” value (Control (uninfected) NHBE cells, Biolog PMM2, 0 hr) was 1.00 and the “Substrate use, 590 nm absorbance normalized to zero hour, 1 hr” value (Control (uninfected) NHBE cells, Biolog PMM2, 1 hr) was 1.49. For the same compound, the “Substrate use, 590 nm absorbance normalized to zero hour, 5 hr” value (Control (uninfected) NHBE cells, Biolog PMM2, 5 hr) was 2.63, the “Substrate use, 590 nm absorbance normalized to zero hour, 7 hr” value (Control (uninfected) NHBE cells, Biolog PMM2, 7 hr) was 2.87 and the “590 nm absorbance normalized to zero hour (substrate use), 0 hr” value [2] was 1.00. The “590 nm absorbance normalized to zero hour (substrate use), 1 hr” value [2] was 2.26, the “590 nm absorbance normalized … 2 hr” value [2] was 2.49 and the “590 nm absorbance normalized … 3 hr” value [2] was 2.54. The “590 nm absorbance normalized … 4 hr” value [2] was 2.71, the “590 nm absorbance normalized to zero hour (substrate use), 5 hr” value [2] was 2.61 and the “590 nm absorbance normalized … 6 hr” value [2] was 1.75. The “590 nm absorbance normalized to zero hour (substrate use), 7 hr” value [2] was 1.82, the “590 nm absorbance normalized … 8 hr” value [2] was 1.98 and the “590 nm absorbance normalized … 9 hr” value [2] was 1.95. The “590 nm absorbance normalized … 10 hr” value [2] was 2.27, the “590 nm absorbance normalized … 11 hr” value [2] was 2.21 and the “590 nm absorbance normalized to zero hour (substrate use), 0 hr” value [3] was 1.00. For the same compound, the “590 nm absorbance normalized to zero hour (substrate use), 1 hr” value [3] was 2.26, the “590 nm absorbance normalized … 2 hr” value [3] was 2.49 and the “590 nm absorbance normalized … 3 hr” value [3] was 2.54. The “590 nm absorbance normalized … 4 hr” value [3] was 2.71, the “590 nm absorbance normalized to zero hour (substrate use), 5 hr” value [3] was 2.61 and the “590 nm absorbance normalized … 6 hr” value [3] was 1.75. The “590 nm absorbance normalized to zero hour (substrate use), 7 hr” value [3] was 1.82, the “590 nm absorbance normalized … 8 hr” value [3] was 1.98 and the “590 nm absorbance normalized … 9 hr” value [3] was 1.95. The “590 nm absorbance normalized … 10 hr” value [3] was 2.27 and the “590 nm absorbance normalized … 11 hr” value [3] was 2.21.
